In paper PMC7036132, “Effects of the Salt-Processing Method on the Pharmacokinetics and Tissue Distribution of Orally Administered Morinda officinalis How. Extract” (Journal of Analytical Methods in Chemistry, 2020):
Where “and” joins values, the source holds several entries; their conditions need not be identical. Equal entries are not always repeated.

Key:
[1] = Pharmacokinetics in rat plasma after oral administration of MO and SMO extract (UPLC-MS/MS); type: in vivo, Sprague-Dawley (SD) rats; settings: for Cmax: male, Sprague-Dawley, rat, plasma, po, 40 g/kg; for Cmax / AUC (0-t) / AUC (0-∞) / CL/F / MRT (0-t) / T max / V/F / t1/2z: n = 6
Description: (§1) For LC-MS/MS analysis, data acquisition and instrument control were performed using MassLynx 4.1 software (Waters Corp., Milford, MA, USA). The analysis column was an Acquity UPLC HSS T3 column (100 mm × 2.1 mm, 1.8 μm, Waters) with a temperature of 40°C. The mobile phase was acetonitrile containing 0.1% formic acid (A) and 0.1% formic acid aqueous solution (B). The elution gradient was 0.00–0.50 min with 2% B; 0.51–5.00 min with 2%–30% B; and 5.01–7.00 min with 40% B. The flow rate was 0.2 mL/min.
(§2) The Waters triple quadruple mass spectrometer (Xevo TQD, Waters Corp., Milford, MA, USA) equipped with an electrospray ionization source (ESI) was used in negative ion mode. The desolvation gas was nitrogen with a flow rate of 500 L/h at a temperature of 250°C. All detected compounds were measured in multiple reaction monitoring (MRM) mode.
10 μL of IS working solution and 400 μL of methanol were added to 100 μL plasma. The solution was vortexed for 10 min and then centrifuged at 12,000 rpm for 5 min. The supernatant was shifted to another centrifugation tube and dried with nitrogen at 37°C. The residue was redissolved in 100 μL acetonitrile and centrifuged for 5 min at 12,000 rpm. Five microliters of supernatant was drawn and analyzed by UPLC-MS/MS.
The SD rats (6, male) were housed at 22 ± 2°C and fasted for 12 h with drinking water available ad libitum. MO and SMO ethanol extract were orally administered at a dose of 40 g/kg (equivalent to 6.44 and 3.95 mg/kg of monotropein, 0.088 and 0.091 mg/kg of rubiadin, and 0.174 and 0.178 mg/kg of rubiadin 1-methyl ether). Blood samples (0.5 mL) were collected from the venous plexus of the eye socket at 0.083, 0.25, 0.5, 1.0, 1.5, 2.0, 2.5, 4.0, 6.0, 12.0, and 24 h under anesthesia. Then, the blood samples were centrifuged at 4500 rpm for 10 min, and then the plasma was immediately transferred to new tubes and stored at −80°C until analysis. The pharmacokinetic parameters were calculated using DAS software (3.0 version, China Food and Drug Administration) based on noncompartmental method. All data were recorded as mean ± SD.

[2] = Tissue distribution after oral administration of MO and SMO extract; type: in vivo, SD rats; settings: rat; 0.25, 1, 3 and 6 h after oral MO or SMO extract 40 g/kg
Description: as §1, §2
The whole tissue was cut into pieces and homogenized with ice-cold 0.9% (m/v) sodium chloride solution (1 : 9, w/v). Using 50 μL of tissue homogenate, the tissue samples were prepared in the same way as the plasma samples.
MO and SMO ethanol extract (40 g/kg) was orally administered to SD rats (weight, 180–220 g, n = 6), at 0.25, 1, 3, and 6 h, respectively. […]

## O=C(O)C1=CO[C@@H](O[C@@H]2O[C@H](CO)[C@@H](O)[C@H](O)[C@H]2O)[C@H]2[C@@H]1C=C[C@]2(O)CO [Monotropein, monotropein]
[1]; oral MO extract 40 g/kg
  Cmax: 23.3 ± 0.764 ng/mL
  AUC (0-t): 44.22 ± 0.932 μg/L ∗ h
  AUC (0-∞): 48.952 ± 1.559 μg/L ∗ h
  CL/F: 0.818 ± 0.265 L/g/h
  MRT (0-t): 3.863 ± 0.184 H
  T max: 1.0 H and 1.0 ± 0.00 H
  V/F: 14.447 ± 2.143 L/g
  t1/2z: 12.291 ± 2.09 H
[1]; oral SMO extract 40 g/kg
  Cmax: 23.3 ± 0.676 ng/mL
  AUC (0-t): 26.941 ± 1.423 μg/L ∗ h
  AUC (0-∞): 27.045 ± 1.338 μg/L ∗ h
  CL/F: 1.482 ± 0.750 L/g/h
  MRT (0-t): 1.686 ± 0.025 H
  T max: 0.5 H and 0.5 ± 0.00 H
  V/F: 12.239 ± 9.027 L/g
  t1/2z: 5.611 ± 3.958 H
[1]; oral MO and SMO extract 40 g/kg
  Shape of plasma concentration-time curve: obvious double-peak phenomenon
[2]
  Concentration in lung tissue: could not be quantified
